This is an account of results in patent EP3543705A1, “MITOCHONDRIAL PH PROBE” (priority 2018, dated 2019).

Data set [1] concerns mitochondria of A2780 ovarian cancer cell line. Nature of the data set: fluorescein/Cy5 fluorescence ratio in stained live cells treated with nigericin or FCCP. The class given is cell-based. Particulars: 300 nM FCCP or 2uM nigericin versus DMSO vehicle control; cells stained with 2 µM 5FA-PIP-Cy5-DA. The protocol: A2780 ovarian cancer cells were cultured in 24-well microscopy glass bottom plates in a CO2 incubator. […] Separate fluorescent images in green (488/520 nm) and deep red (640/660 nm) spectral channels were acquired on Visitron W1 spinning disk confocal microscope. The florescence ratio was quantified using a specifically designed batch ImageJ plugin. This software thresholds the pH-independent Cy5 channel, quantifies the fluorescence intensity in the thresholded image areas, and uses the thresholded mask to quantify the intensity of pH-dependent 5Fluo channel. The intensity ratio is then used to estimate the mitochondrial pH of the cells. […] Typical pH variations in mitochondria of A2780 ovarian cancer cell line are represented at Figure 4. Typical staining procedure is described further. […] All images are maximum intensity projection. […] The mitochondrial staining on Figure 4A is very homogeneous. […] The mitochondrial staining on Figure 4B is very heterogeneous, unlike the Figure 4A. Figure 4C represents the overlap image of Figure 4A and Figure 4B. Bluish hint Figure 4C corresponds to relatively high mitochondrial pH, reddish to relatively low mitochondrial pH. Figure 4D represents bright field image. […] Confocal images were acquired for control, FCCP- and nigericin-treated cell samples, and the ratio between fluorescein and Cy5 channel fluorescence was quantified.

The test system is the same in data set [2]. Put plainly: probe calibration in defined-pH buffers: collapse of the mitochondrial pH gradient. To be noted: stained cells in high K+ buffers, pH range 6.73 to 8.36. It counts as cell-based.
Description: A2780 ovarian cancer cells were cultured in 24-well microscopy glass bottom plates in a CO2 incubator. Prior to imaging, the cells were stained with 2uM 5FA-PIP-Cy5-DA, and/or TMRM (20nM) for 30 min in bicarbonate-free DMEM medium to avoid extracellular pH fluctuations, then washed with the same medium (without 5FA-PIP-Cy5-DA) and imaged with confocal spinning disk microscopy at 60x magnification When TMRM was used, this dye was also present in the bicarbonate-free DMEM medium during the imaging of the cells. Separate fluorescent images in green (488/520 nm) and deep red (640/660 nm) spectral channels were acquired on Visitron W1 spinning disk confocal microscope. The florescence ratio was quantified using a specifically designed batch ImageJ plugin. This software thresholds the pH-independent Cy5 channel, quantifies the fluorescence intensity in the thresholded image areas, and uses the thresholded mask to quantify the intensity of pH-dependent 5Fluo channel. The intensity ratio is then used to estimate the mitochondrial pH of the cells. Calibration of the intensity ratio was achieved through the staining of A2780 cells in a series of PBS - 5% BSA buffers with defined pH, containing 20mM HEPES and 5uM FCCP, to equilibrate the mitochondrial pH with the pH of the buffer.
The stained cells were treated with FCCP in high K^+ buffers in a pH range of 6.73 to 8.36.
For data set [3], the system named is LT-HSC. Nature of the data set: mitochondrial pH of hematopoietic stem cells in different culture conditions, measured with 5FA-PIP-Cy5-DA. The class given is cell-based, mice. Particulars: LT-HSC cultured with 5 uM DMOG or IL-3 20 ng/mL and IL-6 100ng/mL, compared with basal medium, ST-HSC and MPP. The source says: For LT-HSC cells, three different culture conditions (basal medium, DMOG-induced chemical hypoxia and IL-3, IL-6 - induced differentiation) were examined. The calibration curve for the ratio of 5Fluoro/Cy5 fluorescence was obtained using FCCP and a PBS-5% BSA buffer with MPP cells in a manner analogous to the method described in Example 2 (see Figure 10). Fresh cells, extracted from bone marrow of 8-12 week old male mice were stained on ice for surface cell markers and sorted by FACS, according to the following phenotypes: LT-HSC Lin- cKit+ Sca1+ CD150+ CD34- CD48-; ST-HSC Lin- cKit+ Sca1 + CD150+ CD34+; MPP Lin- cKit+ Sca1 + CD150- CD34+. The cells were cultured in Hematopoietic Stemline II (Sigma) medium with addition of SCF and Flt-3 cytokines. For appropriate experiments, additionally 5 uM DMOG or IL-3 20 ng/mL and IL-6 100ng/mL cytokines were added. […] Separate fluorescent images in green and deep red spectral channels were acquired. The florescence ratio was quantified by a specifically designed batch ImageJ plugin as described above.

Data set [4] concerns A2780 cells. Nature of the data set: mitochondrial pH of drug-treated cells, measured with 5FA-PIP-Cy5-DA. It counts as cell-based. From the text: The calibration curve for the ratio of 5Fluoro/Cy5 fluorescence was obtained using FCCP and a PBS-5% BSA buffer with A2780 cells in a manner analogous to the method described in Example 2 (see Figure 12). The quantifying of mitochondrial pH in the presence of the drug and after the drug was washed away allowed the distinction between interference with mitochondrial metabolism and general cytotoxicity. If the effect of the drug was primarily to affect mitochondrial metabolism it was expected that the mitochondrial pH would quickly return to the non-treated cell level following removal of the drug, providing the drug had no other significant cytotoxic effects. Conversely, if the effect of the drug were not reversed by the washing step, an observed alteration of mitochondrial pH could be interpreted at least partially as a downstream consequence of the general cytotoxicity of the drug. A2780 cells were cultured in 24-well microscopy glass bottom plates in RPMI medium, containing Glutamax with 10% FBS addition. The cells were treated with appropriate 800uM […] or 5uM cisplatin. […] If the drug was not washed away prior to staining, it remained present in the medium through the whole imaging time. Separate fluorescent images in green and deep red spectral channels were acquired. The florescence ratio was quantified by a specifically designed batch ImageJ plugin as described above. Statistical analysis was performed using 1-way ANOVA with Bonferroni-Holm post-hoc analysis.

The nature of data set [5]: pH dependence of fluorescence at 520 nm of the active probe (pKa study). It counts as physicochemical. Particulars: PBS buffer with 5% BSA, estimated. The protocol:
The pH dependence for fluorescence at 520 nm of 5FA-PIP-Cy5, the active form of 5FA-PIP-Cy5-DA was measured with 5FA-PIP-Cy5 dissolved in a PBS buffer with 5% BSA. (see Figure 3). From this study the pKa of the active form was estimated to be 6.88. This value is within expectable range for the fluorescein moiety containing electron-donor amide group and is within the physiologically relevant range of 6.5 - 8.5.

The subject of data set [6] is A2780 cells. Nature of the data set: mitochondrial staining with the inactive (caged) form versus the active form. It counts as cell-based. Particulars: 2uM, identical conditions.
Where [7] appears, read: after the drug was washed away, treated one day with 800uM RAPTA-T or 5uM cisplatin, control cells pH 8.4.
Setting [8] is: in the presence of the drug, treated one day with 800uM RAPTA-T or 5uM cisplatin, control cells pH 8.4.

In the case of `N#CC(C#N)=NNc1ccc(OC(F)(F)F)cc1` [FCCP, carbonylcyanide-4-trifluoromethoxyphenylhydrazone], the 5Fluo-Cy5 ratio result in data set [1] was “clear measurable decrease”. Moreover, the “collapse of the mitochondrial pH gradient” value in data set [2] is “full collapse of the mitochondrial pH gradient”.
In the case of `COC(=O)CNC(=O)C(=O)OC` [DMOG], the “average mitochondrial pH” value in data set [3] is given as “the same level of average mitochondrial pH”.
`Cc1ccccc1.[Cl][Ru]([Cl])[PH]12CN3CN(CN(C3)C1)C2` [RAPTA-T]: the results for the “mitochondrial pH” value in data set [4] (setting [7]) and in data set [4] (setting [8]) were 8.4 and 8.0, respectively.
Consider `CC[C@H]1/C=C/C=C/C[C@@H](C)[C@H](O)[C@@](C)(O)C(=O)[C@@H](C)[C@H](O)[C@@H](C)C(=O)[C@@H](C)[C@H](O)[C@@H](C)/C=C/C(=O)O[C@@H]2[C@H](C)[C@H](CC1)O[C@]1(CC[C@H](C)[C@H](C[C@@H](C)O)O1)[C@H]2C` [oligomycin], for which, in data set [4] (addition of 10µm oligomycin, increase from 8.4), the “mitochondrial pH” value is given as “around 8.5”.
Take `CO[C@@H]1C[C@@H](C[C@H]2CC[C@H](C)[C@H]([C@@H](C)C(=O)O)O2)O[C@]2(O[C@](C)([C@H]3CC[C@@](C)([C@@H]4O[C@@H]([C@H]5O[C@@](O)(CO)[C@H](C)C[C@@H]5C)C[C@@H]4C)O3)C[C@H]2C)[C@@H]1C` [nigericin]: the 5Fluo-Cy5 ratio entry in data set [1] was “clear measurable decrease”. Besides, in data set [2], the “collapse of the mitochondrial pH gradient” value is listed as “no full gradient collapse”.
As to `N.N.[Cl][Pt][Cl]` [cisplatin], the “mitochondrial pH” value in data set [4] (setting [7]) was found to be 8.0; in data set [4] (setting [8]), 7.8.
With `CN1C(=CC=CC=CC2=[N+](CCCCCC(=O)N3CCN(CC(=O)Nc4ccc5c(c4)C(=O)OC54c5ccc(O)cc5Oc5cc(O)ccc54)CC3)c3ccccc3C2(C)C)C(C)(C)c2ccccc21` [5FA-PIP-Cy5], the “pKa of the active form” value in data set [5] was 6.88. Also, the staining of mitochondria result in data set [6] is recorded as “absolutely no staining of mitochondria”.
